Here are results for 8 molecules from article PMC6838683, “Discovery of Human Signaling Systems: Pairing Peptides to G Protein-Coupled Receptors” (Cell, 2019).

Assay [1] deals with GPR55 (Homo sapiens, UniProt Q9Y2T6). The assay is described as follows: Repeat of proposed literature pairing (mass redistribution and/or internalization). Format: cell-based. Also on record: hIL-2Ra signal peptide (N); expressed in transfected cells. The conditions noted are these: target GPR55. The source says:
(§1) DMR assays provide a single integrated readout of ligand-dependent cellular response, utilizing an optical biosensor in specialized microplates to detect wavelength shifts of reflected light as it passes through the biosensor and the lower portion of the cell (∼150-200 nm). As a signal pathway agnostic approach, DMR assays are well-suited to the study of GPCRs ([Fang et al., 2008], [Schröder et al., 2011]). The mass redistribution response (Δ picometer (pm)) likely reflects a number of intracellular events, including cytoskeletal rearrangement, protein trafficking and receptor internalization. […] After 3-5 min baseline recordings, peptides (10 μM) were added in duplicate wells using an electronic 384-channel Viaflo pipette (Integra Biosciences, Switzerland) and DMR responses were measured for 60 min at 22°C. […] Real-time data were processed using the BT to column converter MS-Excel macro (Corning) and analyzed in GraphPad Prism 7.0. DMR recordings in peptide screening experiments were buffer and solvent corrected and the area under the curve (AUC) was quantified. […]
(§2) A TR-FRET real-time internalization assay was used to examine peptide-dependent changes in orphan receptor localization as described previously ([Foster and Bräuner-Osborne, 2018]). […] For peptide screening analysis (both DMR and internalization assays), we calculated the area under the curve from the real-time traces. […]

In assay [2] the target is T1, GPR139 (Homo sapiens, UniProt Q6DWJ6).
T1 construct: hIL-2Ra signal peptide (N); expressed in transfected cells
T1 sequence (Q6DWJ6 2-353 limits assumed): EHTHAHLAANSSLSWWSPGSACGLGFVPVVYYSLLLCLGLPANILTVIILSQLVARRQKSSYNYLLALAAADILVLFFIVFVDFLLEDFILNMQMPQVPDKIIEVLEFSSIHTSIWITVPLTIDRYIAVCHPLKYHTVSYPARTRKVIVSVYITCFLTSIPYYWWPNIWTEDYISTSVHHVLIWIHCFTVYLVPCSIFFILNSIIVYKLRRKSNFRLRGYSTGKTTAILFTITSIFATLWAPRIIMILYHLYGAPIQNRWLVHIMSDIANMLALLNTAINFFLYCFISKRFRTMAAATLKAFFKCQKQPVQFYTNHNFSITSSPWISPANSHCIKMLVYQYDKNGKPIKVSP
Description: IP1 accumulation. Format: cell-based. The conditions noted are these: mean, SEM and n, read-out: pEC50, IP1 (converted). The source says: Supplement mmc7.xlsx, sheet "Peptide validation data" | column: Emax; pEC50

The target in assay [3] is T1, GPR139. Description: Repeat of proposed literature pairing (mass redistribution and/or internalization). Format: cell-based. The settings on record: GPR139; mean, SEM and n; read-out: pEC50, DMR (peak) (converted). From the text:
DMR assays provide a single integrated readout of ligand-dependent cellular response, utilizing an optical biosensor in specialized microplates to detect wavelength shifts of reflected light as it passes through the biosensor and the lower portion of the cell (∼150-200 nm). As a signal pathway agnostic approach, DMR assays are well-suited to the study of GPCRs ([Fang et al., 2008], [Schröder et al., 2011]). The mass redistribution response (Δ picometer (pm)) likely reflects a number of intracellular events, including cytoskeletal rearrangement, protein trafficking and receptor internalization. Orphan receptor-expressing cells were gently washed twice with assay buffer (HBSS with 1 mM CaCl2, 1 mM MgCl2, 20 mM HEPES, 0.01% pluronic F-68, pH 7.4) containing 0.1% DMSO and cells were equilibrated for 90 min at 22°C in the EPIC Benchtop (BT) System (Corning) to establish a stable DMR signal. After 3-5 min baseline recordings, peptides (10 μM) were added in duplicate wells using an electronic 384-channel Viaflo pipette (Integra Biosciences, Switzerland) and DMR responses were measured for 60 min at 22°C. 100 nM norepinephrine was included as an internal assay control to assess the cellular DMR response via endogenously-expressed adrenoceptors in the TREx 293 cells. Real-time data were processed using the BT to column converter MS-Excel macro (Corning) and analyzed in GraphPad Prism 7.0. DMR recordings in peptide screening experiments were buffer and solvent corrected and the area under the curve (AUC) was quantified. For subsequent validation experiments, peptides were diluted in assay buffer containing 0.1% DMSO and DMR assays were performed as above. […] Data represent mean ± standard error of the mean (SEM) from at least 3 biologically independent experiments.
A TR-FRET real-time internalization assay was used to examine peptide-dependent changes in orphan receptor localization as described previously ([Foster and Bräuner-Osborne, 2018]). Surface-expressed SNAP-tagged receptors were labeled with a cell-impermeable luminescent terbium cryptate (100 nM SNAP Lumi4-Tb; Cisbio, France) for 1 hr at 37°C. Cells were washed to remove excess terbium and incubated with fluorescein-O-acetic acid (100 μM; Sigma Aldrich) for 5 min at 37°C. Peptides were added as for DMR assays, and internalization responses were recorded for 60 min at 37°C using an EnVision 2104 Multimode plate reader (PerkinElmer). 100 nM GLP-1 was used as a positive control for SNAP-GLP1R internalization. Real-time internalization responses were calculated based on TR-FRET (excitation 340 nm; emission 520 nm and 615 nm), and were expressed as the ratio between donor (terbium) and acceptor (fluorescein) emission. For peptide screening analysis (both DMR and internalization assays), we calculated the area under the curve from the real-time traces. […] Validation experiments for receptor internalization were performed as above. Internalization data was processed in MS-Excel and area under the curve was used to generate concentration-response curves using GraphPad Prism 7.0. Data represent mean ± standard error of the mean (SEM) from at least 3 biologically independent experiments.

Assay [4] concerns GPR3. The settings on record: target GPR3.
Assay [5] concerns BRS3. The assay is described as follows: Repeat of proposed literature pairing (mass redistribution and/or internalization). Format: cell-based, human. The conditions noted are these: target BRS3.
The target in assay [6] is T2, GPR1 (Homo sapiens, UniProt P46091).
T2 sequence (P46091 1-355): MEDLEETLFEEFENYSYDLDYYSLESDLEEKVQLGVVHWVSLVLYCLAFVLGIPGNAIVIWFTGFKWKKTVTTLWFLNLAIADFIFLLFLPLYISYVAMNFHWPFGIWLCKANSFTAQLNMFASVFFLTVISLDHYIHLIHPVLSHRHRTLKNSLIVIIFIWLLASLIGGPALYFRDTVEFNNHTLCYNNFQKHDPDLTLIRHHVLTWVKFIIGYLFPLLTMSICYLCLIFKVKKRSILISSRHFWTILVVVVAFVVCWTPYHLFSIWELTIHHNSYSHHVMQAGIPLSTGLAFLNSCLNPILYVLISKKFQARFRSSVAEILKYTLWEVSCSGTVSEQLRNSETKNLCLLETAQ
The description is as above. Type of assay: cell-based. Also on record: host or cells: HTLA cells (HEK293-derived).
Source text: as §1, §2

For assay [7], the system named is human GPCRs. Also on record: method as in Guide to Pharmacology database. The settings on record: max reported value, ref Guide to Pharmacology database, cited from earlier work. From the text:
Supplement mmc1.xlsx, sheet "HumanGPCRLigands" | column: pKi_value; pKd_value; pEC50_value; pIC50_value

Assay [8] has as its target T3, MRGPRX2 (Homo sapiens, UniProt Q96LB1).
T3 construct: host or cells: HTLA cells (HEK293-derived)
T3 sequence (Q96LB1 1-330): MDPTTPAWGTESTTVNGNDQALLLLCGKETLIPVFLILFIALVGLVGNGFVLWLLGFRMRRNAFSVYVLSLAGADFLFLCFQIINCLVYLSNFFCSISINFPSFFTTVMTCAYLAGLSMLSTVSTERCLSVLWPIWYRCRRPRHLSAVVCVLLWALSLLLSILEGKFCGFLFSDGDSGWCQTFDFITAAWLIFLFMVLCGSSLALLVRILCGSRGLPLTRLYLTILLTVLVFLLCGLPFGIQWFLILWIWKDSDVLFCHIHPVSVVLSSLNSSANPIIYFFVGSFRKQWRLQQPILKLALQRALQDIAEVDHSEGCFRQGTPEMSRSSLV
Description: Repeat of proposed literature pairing (mass redistribution and/or internalization). Format: cell-based. The settings on record: repeat of literature pairing across multiple assays; cleavage variants CST-14 and SRIF-28 tested; Figure S7A.
Source text: as §1, §2

The target in assay [9] is T4, bombesin receptor 3 (human) (UniProt P32247).
T4 sequence: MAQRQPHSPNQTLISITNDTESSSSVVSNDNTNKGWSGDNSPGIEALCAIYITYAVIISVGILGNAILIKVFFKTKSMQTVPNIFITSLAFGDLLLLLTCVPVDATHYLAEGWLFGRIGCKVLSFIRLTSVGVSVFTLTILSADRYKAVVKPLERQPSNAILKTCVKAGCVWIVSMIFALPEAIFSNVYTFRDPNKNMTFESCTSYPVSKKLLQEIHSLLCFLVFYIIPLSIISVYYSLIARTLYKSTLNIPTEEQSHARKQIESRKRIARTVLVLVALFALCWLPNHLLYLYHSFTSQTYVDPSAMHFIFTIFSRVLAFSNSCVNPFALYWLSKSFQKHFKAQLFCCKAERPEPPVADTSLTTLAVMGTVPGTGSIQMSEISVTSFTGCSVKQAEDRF

Where [10] appears, read: reported ligand tested on receptor-expressing cell line.
The mark [11] stands for this setting: receptor CMKLR1 (cml1_human, Q99788).

Read-outs that look alike come from different tables or passages of the source. Residues, ends and D or L forms follow the SMILES beside them.

GPR55, sequence (Q9Y2T6 2-319 limits assumed): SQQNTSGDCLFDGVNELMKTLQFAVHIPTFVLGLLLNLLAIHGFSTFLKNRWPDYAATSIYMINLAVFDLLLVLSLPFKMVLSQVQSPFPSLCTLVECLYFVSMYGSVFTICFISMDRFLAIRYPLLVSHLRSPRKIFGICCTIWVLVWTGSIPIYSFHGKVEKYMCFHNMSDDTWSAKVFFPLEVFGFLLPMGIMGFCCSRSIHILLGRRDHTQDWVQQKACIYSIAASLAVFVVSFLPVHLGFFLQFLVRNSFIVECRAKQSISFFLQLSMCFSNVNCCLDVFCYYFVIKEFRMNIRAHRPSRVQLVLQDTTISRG

`Cc1c(C(=O)NN2CCCCC2)nn(-c2ccc(Cl)cc2Cl)c1-c1ccc(I)cc1` [AM251]: the “Comment (response in DMR / internalization assays)” value in [1] is recorded as “Robust response”. In [1] (setting [10]), the “Active in DMR/internalization” value is reported as “Yes”.
Take `CSCC[C@H](NC(=O)[C@H](CO)NC(=O)[C@H](Cc1ccc(O)cc1)NC(=O)[C@@H](N)CO)C(=O)N[C@@H](CCC(=O)O)C(=O)N[C@@H](Cc1cnc[nH]1)C(=O)N[C@@H](Cc1ccccc1)C(=O)N[C@@H](CCCNC(=N)N)C(=O)N[C@@H](Cc1c[nH]c2ccccc12)C(=O)NCC(=O)N[C@@H](CCCCN)C(=O)N1CCC[C@H]1C(=O)N[C@H](C(=O)NCC(=O)N[C@@H](CCCCN)C(=O)N[C@@H](CCCCN)C(=O)N[C@@H](CCCNC(=N)N)C(=O)N[C@@H](CCCNC(=N)N)C(=O)N1CCC[C@H]1C(=O)N[C@H](C(=O)N[C@@H](CCCCN)C(=O)N[C@H](C(=O)N[C@@H](Cc1ccc(O)cc1)C(=O)N1CCC[C@H]1C(=O)N[C@@H](CC(N)=O)C(=O)NCC(=O)N[C@@H](C)C(=O)N[C@@H](CCC(=O)O)C(=O)N[C@@H](CC(=O)O)C(=O)N[C@@H](CCC(=O)O)C(=O)N[C@@H](CO)C(=O)N[C@@H](C)C(=O)N[C@@H](CCC(=O)O)C(=O)N[C@@H](C)C(=O)N[C@@H](Cc1ccccc1)C(=O)N1CCC[C@H]1C(=O)N[C@@H](CC(C)C)C(=O)N[C@@H](CCC(=O)O)C(=O)N[C@@H](Cc1ccccc1)C(=O)O)C(C)C)C(C)C)C(C)C` [Corticotropin, ACTH] (H-SYSMEHFRWGKPVGKKRRPVKVYPNGAEDESAEAFPLEF-OH): the values for the EC50 in assay [2] and in assay [3] were 1150 nM and 66.1 nM, respectively.
Take `[Cl-].c1ccc2c(c1)[I+]c1ccccc1-2` [Diphenyleneiodonium chloride (DPI)]: the “Comment (response in DMR / internalization assays)” value in [4] is reported as “Robust response in DMR, no response in internalization assay”. Besides, in assay [4] (setting [10]), the “Active in DMR/internalization” value is given as “Yes (DMR)”.
Regarding `O[C@@](Cc1ncc(CC2(C(F)(F)F)CC2)[nH]1)(c1ccc(-n2cccn2)cc1)C(F)(F)F` [MK-5046], the “Comment (response in DMR / internalization assays)” value in assay [5] was “Robust response”. For the same molecule, the “Active in DMR/internalization” value in assay [5] (setting [10]) is “Yes”.
As for chemerin [reference compound], in assay [6] (repeat of literature pairing), the “Peptide pairing for orphan receptor GPR1 (confirmed/unconfirmed)” value is listed as “Confirmed peptide pairings for orphans”. The “receptor-dependent activation by proposed ligand, GPR1” value in assay [6] (repeat of literature pairing across multiple assays, Figure S7A, Tables S5 and S7) is given as “selective receptor-dependent activation”. For the same molecule, in assay [7] (setting [11]), the pEC50_value is reported as 8.5 and the pKd_value is reported as 8.3.
With cortistatin, the “receptor-dependent activation by proposed ligand, MRGPRX2” value in assay [8] is “selective receptor-dependent activation”.
Turning to somatostatin [reference compound], the pKi_value in assay [7] (receptor SSTR1 (ssr1_human, P30872)) was 9.4; in [7] (receptor SSTR2 (ssr2_human, P30874)) it was 10.2; in assay [7] (receptor SSTR3 (ssr3_human, P32745)), 9.9; in assay [7] (receptor SSTR4 (ssr4_human, P31391)) it was 9.2; in assay [7] (receptor SSTR5 (ssr5_human, P35346)), 10.3. Besides, in assay [8], the “receptor-dependent activation by proposed ligand, MRGPRX2” value is “selective receptor-dependent activation”.

B1: neuromedin B (peptide)
peptide: GNLWATGHFM
In assay [9], B1 showed a pEC50 of neuromedin B responses in G (q/11) signaling assays (IP1 generation) of 6.39 pEC50 and a pEC50 of neuromedin B responses in mass redistribution of 7.43 pEC50.
